Columns and labels:
Assay in all cases: combination Emax (second highest fraction inhibited in the dose matrix, 72 h); higher = more inhibition; extreme values may be limits of the assay
[1] = test system: K5 (Thyroid Gland Carcinoma)
Summary of the method: (§1)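 Cell lines in DMEM/F12 or RPMI with 10% FBS were plated in 1536-well plates, held 24 hours at 37°C, 5% CO2, then given two-drug dose matrices for 72 hours (DMSO typically 0.2%). Viability was read by CellTiter-Glo 2.0 luminescence and scaled as inhibition from 0 (vehicle wells) to 1 (blank wells). Combination Emax is the second-highest inhibition in the matrix; Bliss excess is observed combination effect minus expected EA + EB − EA·EB, EA and EB being single-agent effects.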

[2] = test system: HO-1-u-1 (Oral Cavity Carcinoma)
Summary of the method: as §1

[3] = test system: NCI-H69 (Small Cell Lung Carcinoma)
Summary of the method: as §1

[4] = test system: SW1116 (Colorectal Carcinoma)
Summary of the method: as §1

[5] = test system: OC-314 (Ovarian Carcinoma)
Summary of the method: as §1

[6] = test system: KYSE-410 (Esophageal Squamous Cell Carcinoma)
Summary of the method: as §1

[7] = test system: CAL-51 (Breast Carcinoma)
Summary of the method: as §1

[8] = test system: LoVo (Colorectal Carcinoma)
Summary of the method: as §1

[9] = test system: UMC-11 (Other Solid Carcinomas)
Summary of the method: as §1

[10] = test system: CAL-54 (Kidney Carcinoma)
Summary of the method: as §1

[11] = test system: OVCAR-8 (Ovarian Carcinoma)
Summary of the method: as §1

NB14 (Neuroblastoma) = test system: NB14 (Neuroblastoma)
Summary of the method: as §1

[12] = test system: SW1271 (Small Cell Lung Carcinoma)
Summary of the method: as §1

[13] = test system: MDA-MB-468 (Breast Carcinoma)
Summary of the method: as §1

NCI-H2795 (Mesothelioma) = test system: NCI-H2795 (Mesothelioma)
Summary of the method: as §1

[14] = test system: HCC-15 (Squamous Cell Lung Carcinoma)
Summary of the method: as §1

[15] = test system: HDLM-2 (Hodgkin's Lymphoma)
Summary of the method: as §1

[16] = test system: RT-112 (Bladder Carcinoma)
Summary of the method: as §1

[17] = test system: HARA (Squamous Cell Lung Carcinoma)
Summary of the method: as §1

[18] = test system: RPMI-6666 (Non-Cancerous)
Summary of the method: as §1

Row | Structure (SMILES) | combination Emax [1] | combination Emax [2] | combination Emax [3] | combination Emax [4] | combination Emax [5] | combination Emax [6] | combination Emax [7] | combination Emax [8] | combination Emax [9] | combination Emax [10] | combination Emax [11] | combination Emax (NB14 (Neuroblastoma)) | combination Emax [12] | combination Emax [13] | combination Emax (NCI-H2795 (Mesothelioma)) | combination Emax [14] | combination Emax [15] | combination Emax [16] | combination Emax [17] | combination Emax [18]
1 | CC1(C)CCC(CN2CCN(c3ccc(C(=O)NS(=O)(=O)c4ccc(NCC5CCOCC5)c([N+](=O)[O-])c4)c(Oc4cnc5[nH]ccc5c4)c3)CC2)=C(c2ccc(Cl)cc2)C1 [Venetoclax] + COc1cc(Nc2ncc3c(n2)-c2ccc(Cl)cc2C(c2c(F)cccc2OC)=NC3)ccc1C(=O)O [Alisertib] (first compound max 1 µM, 7x7, partner max 10 µM) | 0.841 | 0.611 | 0.837 | 0.341 | 0.504 | 0.361 | 0.574 | 0.48 | 0.798 | 0.523 | 0.487 | 0.993 | 0.326 | 0.748 | 0.936 | 0.86 | 0.643 | 0.673 | 0.787 | 0.967
2 | Cc1c2c(nn1C)CSCc1cc(n(C)n1)CSc1cc(c3ccccc3c1)OCCCc1c(C(=O)O)n(C)c3c-2c(Cl)ccc13 [AZD5991] + CCN(CCO)CCCOc1ccc2c(Nc3cc(CC(=O)Nc4cccc(F)c4)[nH]n3)ncnc2c1 [AZD2811] (first compound max 1 µM, 7x7, partner max 1 µM) | 0.298 | 0.657 | 0.623 | 0.256 | 0.449 | 0.265 | 0.66 | 0.314 | 0.949 | 0.234 | 0.42 | 0.953 | 0.176 | 0.738 | 0.762 | 0.783 | 0.978 | 0.986 | 0.776 | 0.797
3 | CCN(CCO)CCCOc1ccc2c(Nc3cc(CC(=O)Nc4cccc(F)c4)[nH]n3)ncnc2c1 [AZD2811] + C[C@@H]1COCCN1C2=NC(=NC(=C2)C3(CC3)[S@](=N)(=O)C)C4=C5C=CNC5=NC=C4 [AZD6738] (first compound max 1 µM, 7x7, partner max 10 µM) | 0.635 | 0.852 | 0.726 | 0.295 | 0.869 | 0.355 | 0.922 | 0.83 | 0.799 | 0.666 | 0.797 | 0.998 | 0.595 | 0.563 | 0.674 | 0.824 | 0.515 | 0.824 | 0.816 | 0.833
4 | CN(C)CCCOc1ccc(-c2ccc3ncc4c(c3c2)n(C2CCOCC2)c(=O)n4C)cn1 [AZD0156] + CCN(CCO)CCCOc1ccc2c(Nc3cc(CC(=O)Nc4cccc(F)c4)[nH]n3)ncnc2c1 [AZD2811] (first compound max 1 µM, 7x7, partner max 1 µM) | 0.244 | 0.209 | 0.673 | 0.0823 | 0.312 | 0.0555 | 0.196 | 0.435 | 0.758 | 0.134 | 0.26 | 0.857 | 0.201 | 0.363 | 0.291 | 0.665 | 0.178 | 0.205 | 0.289 | 0.551
5 | COc1cccc2c1C(=O)c1c(O)c3c(c(O)c1C2=O)C[C@@](O)(C(=O)CO)C[C@@H]3O[C@H]1C[C@H](N)[C@H](O)[C@H](C)O1 [Doxorubicin] + Cc1cc2ncnn2cc1Nc1ncc2c(n1)n(C1CCOCC1)c(=O)n2C [AZD7648] (first compound max 1 µM, 7x7, partner max 10 µM) | 0.823 | 0.832 | 0.747 | 0.146 | 1 | 0.117 | 0.936 | 0.688 | 0.613 | 0.802 | 0.923 | 0.887 | 0.768 | 0.638 | 0.709 | 0.284 | 0.545 | 0.9 | 0.808 | 0.971
6 | NC1(C(=O)N[C@@H](CCO)c2ccc(Cl)cc2)CCN(c2ncnc3[nH]ccc23)CC1 [Capivasertib] + C[C@@H]1COCCN1C2=NC(=NC(=C2)C3(CC3)[S@](=N)(=O)C)C4=C5C=CNC5=NC=C4 [AZD6738] (first compound max 10 µM, 7x7, partner max 10 µM) | 0.687 | 0.887 | 0.671 | 0.227 | 0.793 | 0.397 | 0.936 | 0.801 | 0.67 | 0.813 | 0.776 | 0.964 | 0.512 | 0.726 | 0.737 | 0.367 | 0.518 | 0.62 | 0.868 | 0.775

— the supplement of paper PMC11061612
